BindingDB's records for doi:10.1021/acs.biochem.6b01020 (University of Delaware, 2017)
Square brackets hold non-standard residues; d marks the D form. Peptide text beside a SMILES is read from it. * marks the point of attachment. C(CF3)3 = FC(F)(F)C(C(F)(F)F)(C(F)(F)F)*; Hyp = O=C(O)[C@@H]1C[C@@H](O)CN1; hSer = N[C@@H](CCO)C(=O)O

Target: T1, Estradiol-bound Estrogen receptor [255-595] (Homo sapiens, UniProt P03372)
T1 construct: 255-595
T1 sequence (P03372 whole entry): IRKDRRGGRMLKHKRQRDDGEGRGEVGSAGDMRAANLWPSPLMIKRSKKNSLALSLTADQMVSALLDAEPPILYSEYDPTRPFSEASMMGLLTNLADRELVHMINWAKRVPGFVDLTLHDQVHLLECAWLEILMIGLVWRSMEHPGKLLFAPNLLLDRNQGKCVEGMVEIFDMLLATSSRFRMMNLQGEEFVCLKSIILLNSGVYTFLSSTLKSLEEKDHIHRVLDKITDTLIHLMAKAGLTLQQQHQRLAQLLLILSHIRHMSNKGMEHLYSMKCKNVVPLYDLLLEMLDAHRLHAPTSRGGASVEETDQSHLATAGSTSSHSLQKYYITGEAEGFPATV
Experiment: Fluorescence Polarization Assay
Conditions: pH 7.4; 25 °C
Experimental: Peptide concentrations were determined by the absorbance at 492 nm, using a fluorescein extinction coefficient of 83000. Fluorescence polarization assays were conducted in 96-well round-bottom black opaque plates (Costar) using 2-fold serial dilutions of the ERα LBD, to final protein concentrations from 10 to 0.0098 μM, in PBS containing 0.1 mM DTT, 20 μM 17β-estradiol, 0.04 mg/mL BSA, and 100 nM fluorescein-labeled peptide. Solutions were incubated in the dark for 30 min at room temperature before being read on a PerkinElmer Fusion plate reader using a 485 nm fluorescein excitation filter and a 535 nm emission filter with a polarizer.

## CC[C@H](C)[C@H](NC(=O)[C@H](CCCCN)NC(=O)[C@H](Cc1cnc[nH]1)NC(=O)[C@H](CCCNC(=N)N)NC(=O)[C@H](CCC(=O)O)NC(=O)[C@@H](NC(=O)[C@H](CC(C)C)NC(=O)[C@@H](N)CS)[C@@H](C)O)C(=O)N[C@H](CCOC(C(F)(F)F)(C(F)(F)F)C(F)(F)F)C(=O)N[C@@H](Cc1cnc[nH]1)C(=O)N[C@@H](CCCNC(=N)N)C(=O)N[C@@H](CC(C)C)C(=O)N[C@@H](CC(C)C)C(=O)N[C@@H](CCC(N)=O)C(=O)N[C@@H](CCC(=O)O)C(=O)O
  Kd: 43 µM

## CC[C@H](C)[C@H](NC(=O)[C@H](CCCCN)NC(=O)[C@H](Cc1cnc[nH]1)NC(=O)[C@H](CCCNC(=N)N)NC(=O)[C@H](CCC(=O)O)NC(=O)[C@@H](NC(=O)[C@H](CC(C)C)NC(=O)[C@@H](N)CS)[C@@H](C)O)C(=O)N[C@@H](CC(C)C)C(=O)N[C@@H](Cc1cnc[nH]1)C(=O)N[C@@H](CCCNC(=N)N)C(=O)N[C@@H](CCOC(C(F)(F)F)(C(F)(F)F)C(F)(F)F)C(=O)N[C@@H](CC(C)C)C(=O)N[C@@H](CCC(N)=O)C(=O)N[C@@H](CCC(=O)O)C(=O)O (H-CLTERHKILHR[hSer](C(CF3)3)LQE-OH)
  Kd: 2.2 µM

## CC[C@H](C)[C@H](NC(=O)[C@H](CCCCN)NC(=O)[C@H](Cc1cnc[nH]1)NC(=O)[C@H](CCCNC(=N)N)NC(=O)[C@H](CCC(=O)O)NC(=O)[C@@H](NC(=O)[C@H](CC(C)C)NC(=O)[C@@H](N)CS)[C@@H](C)O)C(=O)N1C[C@H](OC(C(F)(F)F)(C(F)(F)F)C(F)(F)F)C[C@H]1C(=O)N[C@@H](Cc1cnc[nH]1)C(=O)N[C@@H](CCCNC(=N)N)C(=O)N[C@@H](CC(C)C)C(=O)N[C@@H](CC(C)C)C(=O)N[C@@H](CCC(N)=O)C(=O)N[C@@H](CCC(=O)O)C(=O)O (H-CLTERHKI[Hyp](C(CF3)3)HRLLQE-OH)
  Kd: > 150 µM

## CC(C)C[C@H](NC(=O)[C@H](CC(C)C)NC(=O)[C@H](CCCNC(=N)N)NC(=O)[C@H](Cc1cnc[nH]1)NC(=O)[C@H](CC(C)C)NC(=O)[C@H](CCOC(C(F)(F)F)(C(F)(F)F)C(F)(F)F)NC(=O)[C@H](CCCCN)NC(=O)[C@H](Cc1cnc[nH]1)NC(=O)[C@H](CCCNC(=N)N)NC(=O)[C@H](CCC(=O)O)NC(=O)[C@@H](NC(=O)[C@H](CC(C)C)NC(=O)[C@@H](N)CS)[C@@H](C)O)C(=O)N[C@@H](CCC(N)=O)C(=O)N[C@@H](CCC(=O)O)C(=O)O [CLTERHK(Hse(C4F9))LHRLLQE] (H-CLTERHK[hSer](C(CF3)3)LHRLLQE-OH)
  Kd: 7.1 µM

## H-CLTERHKILHRLLQE-OH
  Kd: 1 µM
